The source of these data is patent US9944598B2, “Mono- or di-substituted indole derivatives as dengue viral replication inhibitors” (priority 2014, dated 2018).

A short description of data set [1]: Chiral stability at pH 7.4 (enantiomeric excess by Chiral SFC). It is filed as physicochemical. The procedure:
The chiral stability of Enantiomer 1A (R=OMe) was evaluated by determination of the enantiomeric excess (ee %) after incubation for 24 h and 48 h in a buffered solution at pH 7.4 at 40° C. and 60° C. To assess the influence of the methoxy-substituent of Enantiomer 1A (R=OMe) on the stability against racemization, the chiral stability of Enantiomer 1′A (R═H) was tested under the same conditions.
To this end, 5 μM buffered (pH=7.4) solutions of 1A and 1′A were prepared by mixing 25 μL of a 100 μM solution of 1A or 1′A in DMSO with 475 μL aqueous buffer pH 7.4. Samples were taken 24 h and 48 h after incubation at 40° C. and 60° C. The analytical samples were analyzed by Chiral SFC (MS detection) and the chiral purity was expressed as the enantiomeric excess (ee %=% enantiomer A−% enantiomer B).

Another data set relates to Vero cells. The data set is described as follows: in vitro. It is filed as cell-based. Conditions: African green monkey.

Regarding `COc1cc(NC(C(=O)c2c[nH]c3cc(F)ccc23)c2ccc(Cl)cc2OC)cc(OCCO)c1` (single isomer, unassigned) [Compound 1A, 2-(4-chloro-2-methoxyphenyl)-1-(6-fluoro-1H-indol-3-yl)-2-((3-(2-hydroxyethoxy)-5-methoxyphenyl)amino)ethanone], the ee % in data set [1] (5 μM buffered solution pH 7.4, 40° C., 24 h) is 100%; in data set [1] (5 μM buffered solution pH 7.4, 40° C., 48 h), 100%; in data set [1] (5 μM buffered solution pH 7.4, 60° C., 24 h), 99%; in data set [1] (5 μM buffered solution pH 7.4, 60° C., 48 h) it was 96%.
As for `COc1cc(NC(C(=O)c2c[nH]c3cc(F)c(F)cc23)c2ccc(Cl)cc2OC)cc(OCCO)c1` (single isomer, unassigned) [Compound 9A, 2-(4-chloro-2-methoxyphenyl)-1-(5,6-difluoro-1H-indol-3-yl)-2-((3-(2-hydroxyethoxy)-5-methoxyphenyl)amino)ethanone], in the data set with Vero cells, half-maximal cytotoxicity (CC50) was put at 6.5 µM.
Still for that read-out and setting: the value for `COc1cc(NC(C(=O)c2c[nH]c3c(F)c(F)ccc23)c2ccc(Cl)cc2OC)cc(OCCO)c1` (single isomer, unassigned) [Compound 11B, 2-(4-chloro-2-methoxyphenyl)-1-(6,7-difluoro-1H-indol-3-yl)-2-((3-(2-hydroxyethoxy)-5-methoxyphenyl)amino)ethanone] was 4.1 µM.
